Counter-ions that a name gives are not always drawn.
How the values were obtained:
1 or 2 -adrenergic = test: In vivo study on amyelous rats (arterial pressure increase, with or without prazosin or yohimbine); parameters: species or system Male Sprague-Dawley rats; details: for ED (20 mmHg): Rattus norvegicus, iv, Control (no antagonist), increasing cumulative doses every 20 seconds, tertatolol pretreatment, read-out: C20 (concentration which increases the pressure by 20 mmHg); for Ratio C20 treated/C20 control: pretreated with yohimbine (1 mg/kg)
Description: In vivo study on AMYELOUS RATS
Male Sprague-Dawley rats (300-400 g) are anesthatized with ether. A cannula is inserted in the trachea, the spinal cord is destroyed using a steel rod and the animal is immediately placed under artificial respiration. The vagus nerves are sectioned. The carotid arteries are ligatured and a catheter is placed in one and is used to record the arterial pressure. Three other catheters are placed in the jugular veins and the vein of the penis and are used for injections. The temperature of the animals is maintained at 36° C. The animal is pretreated with an injection of tertatolol ([…]). The animal is also pretreated 10 minutes afterwards with prazosin ([…]) or yohimbine (1 mg/kg) when it is wished to determine the 1 or 2 -adrenergic properties of the product. Ten minutes later, increasing cumulative doses of product are injected every 20 seconds. The medal pressure variations are detected using a P23XL Statham pressure cell and are recorded. The pressure values are expressed in mmHg. This experiment makes it possible to calculate the concentration which increases the pressure by 20 mmHg (C2.sbsb.0) by non-linear regression according to the model of the Michaelis and Menten mass action law as described above. The maximum effect obtained is then converted to a percentage with respect to the maximum effect caused by phenylephrine. The 1 or 2 -adrenergic components of the product are estimated using the ratio of the C2.sbsb.0 values obtained in the presence of prazosin or of yohimbine to the values obtained in the absence of these antagonists. In amyelous rats, the products of the invention induce hypertensions which are inhibited more by prazosin than by yohimbine.

femoral arteries = test: In vitro contraction of dog femoral arteries (agonist concentration/effect curve); details: Canis lupus familiaris, ARTERY; for EC50: femoral artery rings, dog, 37° C.; for Emax: maximum effect relative to maximum effect caused by 100 mM KCl, read-out: Max (% KCl)
Protocol: (§1) In vitro study on the femoral arteries and saphenous veins of dogs
(§2) The technique used is based on that described by Fowler et at. (J. Pharmacol. Exp. Ther., 229, 712-718, 1984). Male or female mongrel dogs weighing approximately 15-25 kg were used as organ sources. The animals are anesthetized with pentrobarbital (30 mg/kg, intravenously). Incisions are made in the legs and the vessels are withdrawn. They are placed in Krebs-Ringer liquid (NaCl 118 mM, NaHCO3 25 mM, Glucose 10 mM, KCl 4.7 mM, CaCl2 1.25 mM, MgSO4 1.19 mM, KH2 PO4 1.14 mM) at room temperature and while bubbling with carbogen (95% O2, 5% CO2). These vessels are then carefully freed from their fat, then cut into rings with a width of 2 mm and mounted under a base tension of 4 g (femoral arteries) or 1 g (saphenous veins) in vessels thermostatically controlled at 37° C. containing Krebs-Ringer liquid through which carbogen is constantly bubbling. A lower hook constitutes the set point whereas the upper hook is connected to an isometric force sensor. The tension variations are digitized, stored on disk and processed by a computer system. After mounting, the organs, are left at rest for 90 minutes, rinsings being carried out every 30 min. After readjusting the base tension, a contraction is caused by a single dose of KCl (100 mM). After stabilisation, washing and returning to the base line, a contraction is provoked by a single dose of phenylephrine (submaximal concentration) in order to regularize the following contractions. After washing and returning to the base line, a concentration/effect curve is produced by addition of cumulative doses of agonist (the spacing between the doses is a half-log). This experiment makes it possible to calculate the 50% effective concentration (EC5.sbsb.0) in the following way: the tension values are first converted to percentages with respect to the maximum effect caused by 100 mM of KCl. This EC5.sbsb.0 is determined by non-linear regression by the Simplex method (M. S. Caceci, Byte, 340-362, 1984), calculated according to the model of the law of mass action of L. Michaelis and M. L. Menten (Biochem. Zeitschrifft, 49, 333-369, 1913). E=(Emax*C^n)(EC^n +C^n) where E=effect, Emax=maximum effect, C=concentration, EC=EC5.sbsb.0 and n=Hill number.

saphenous veins = test: In vitro contraction of dog saphenous veins (agonist concentration/effect curve); details: Canis lupus familiaris, VEIN; for Emax: maximum effect relative to maximum effect caused by 100 mM KCl, read-out: Max (% KCl); for EC50: saphenous vein rings, dog, 37° C.
Protocol: as §1, §2

Structure (SMILES)	EC50 (femoral arteries) [nM]	EC50 (saphenous veins) [nM]	ED (20 mmHg) (1 or 2 -adrenergic) [µg/kg]	Ratio C20 treated/C20 control (1 or 2 -adrenergic)	Emax (femoral arteries) [%]	Emax (saphenous veins) [%]
CCOc1ccc(OCC)c2c1CCC1(CNC=N1)C2 (stereo not drawn) [Example 3, Spiro[(1,3-diazacyclopent-1-ene)-5,2'-(5',8'-diethoxy-1',2',3',4'-tetrahydronaphthalene) fumarate]	–	–	0.6	8	–	–
COc1ccc(SC)c2c1CC1(CC2)CNC=N1 (stereo not drawn) [Example 6, Spiro[(1,3-diazacyclopent-1-ene)-5,2'-(5'-methylthio-8'-methoxy-1',2',3',4'-tetrahydronaphthalene)]fumarate]	80	800	–	–	85	98
CCOc1ccc(OC)c2c1CCC1(CNC=N1)C2 (stereo not drawn) [Example 2, Spiro[(1,3-diazacyclopent-1-ene)-5,2'-(5'-ethoxy-8'-methoxy-1',2',3',4'-tetrahydronaphthalene)]fumarate]	–	–	0.06	5	–	–

Second part, led by results:

EC50 (femoral arteries) [nM]	EC50 (saphenous veins) [nM]	Structure (SMILES)	ED (20 mmHg) (1 or 2 -adrenergic) [µg/kg]	Ratio C20 treated/C20 control (1 or 2 -adrenergic)	Emax (femoral arteries) [%]	Emax (saphenous veins) [%]
30	120	COc1ccc(OC)c2c1CCC1(CNC=N1)C2 (single isomer, unassigned) [Example 7, Spiro[(1,3-diazacyclopent-1-ene)-5,2'-(5',8'-dimethoxy-1',2',3',4'-tetrahydro-naphthalene)]fumarate, isomer α]	–	–	95	109
160	200	COc1ccc(OC)c2c1CCC1(CNC=N1)C2 (stereo not drawn) [Example 1, Spiro[(1,3-diazacyclopent-1-ene)-5,2'-(5',8'-dimethoxy-1',2',3',4'-tetrahydronaphthalene)]fumarate]	–	11	72	100
1500	6400	COc1cccc2c1CCC1(CNC=N1)C2 (stereo not drawn) [Example 5, Spiro[(1,3-diazacyclopent-1-ene)-5,2'-(5'-methoxy-1',2',3',4'-tetrahydronaphthalene)]]	–	–	93	100

Source: patent US5464859A, “Benzospiroalkene derivatives” (Adir et Compagnie, priority 1993, dated 1995)
